Source: paper PMC7718943, “In silico molecular target prediction unveils mebendazole as a potent MAPK14 inhibitor” (Molecular Oncology, 2020)
Where two headings read alike, the source gives them in different places.

Tests used:
ABL1 = molecular target: T1, ABL1 (Homo sapiens, UniProt P00519); assay: ADP-Glo kinase assay; type: biochemical
T1 construct: commercial enzyme of Promega kinase assay

MAPK14 (MAPK14/p38α) = molecular target: T2, MAPK14 (MAPK14/p38α) (Homo sapiens, UniProt Q16539); assay: ADP-Glo kinase assay; type: biochemical; conditions: read-out: IC50 value (μM) ± SD / MAPK14
T2 construct: commercial enzyme of Promega kinase assay
T2 sequence (Q16539 2-360): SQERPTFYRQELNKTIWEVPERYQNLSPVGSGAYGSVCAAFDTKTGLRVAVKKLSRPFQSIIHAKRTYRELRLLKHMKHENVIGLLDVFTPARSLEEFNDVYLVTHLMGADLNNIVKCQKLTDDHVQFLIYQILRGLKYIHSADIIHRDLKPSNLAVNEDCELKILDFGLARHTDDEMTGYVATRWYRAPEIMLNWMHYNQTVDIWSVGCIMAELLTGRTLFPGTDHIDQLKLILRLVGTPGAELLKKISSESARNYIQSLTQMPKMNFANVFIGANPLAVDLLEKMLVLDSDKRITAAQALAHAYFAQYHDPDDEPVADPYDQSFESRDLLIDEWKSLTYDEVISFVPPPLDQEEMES

ERK2 (MAPK1) = molecular target: T3, ERK2 (MAPK1) (Homo sapiens, UniProt P28482); assay: ADP-Glo kinase assay; type: biochemical; conditions: read-out: IC50 value (μM) ± SD / ERK2
T3 construct: commercial enzyme of Promega kinase assay
T3 sequence (P28482 2-360): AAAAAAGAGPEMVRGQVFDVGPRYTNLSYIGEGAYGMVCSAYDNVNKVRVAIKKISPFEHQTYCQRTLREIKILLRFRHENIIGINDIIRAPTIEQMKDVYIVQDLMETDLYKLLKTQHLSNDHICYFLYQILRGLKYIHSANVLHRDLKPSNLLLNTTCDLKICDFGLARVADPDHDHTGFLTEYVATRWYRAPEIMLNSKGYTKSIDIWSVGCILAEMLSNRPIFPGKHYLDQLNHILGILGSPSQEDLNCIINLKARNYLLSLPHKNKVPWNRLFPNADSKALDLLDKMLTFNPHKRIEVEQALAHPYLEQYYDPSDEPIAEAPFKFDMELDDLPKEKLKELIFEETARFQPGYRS
From the text: ADP-Glo kinase assay on ERK2 (MAPK1)

[1] = molecular target: T4, MAPK14 (wild-type, His-tagged, pET28a) (Homo sapiens, UniProt Q16539); assay: isothermal titration calorimetry; type: binding
T4 construct: wild type, pET28a vector, His tag conserved for ITC and TSA
T4 sequence (Q16539 whole entry): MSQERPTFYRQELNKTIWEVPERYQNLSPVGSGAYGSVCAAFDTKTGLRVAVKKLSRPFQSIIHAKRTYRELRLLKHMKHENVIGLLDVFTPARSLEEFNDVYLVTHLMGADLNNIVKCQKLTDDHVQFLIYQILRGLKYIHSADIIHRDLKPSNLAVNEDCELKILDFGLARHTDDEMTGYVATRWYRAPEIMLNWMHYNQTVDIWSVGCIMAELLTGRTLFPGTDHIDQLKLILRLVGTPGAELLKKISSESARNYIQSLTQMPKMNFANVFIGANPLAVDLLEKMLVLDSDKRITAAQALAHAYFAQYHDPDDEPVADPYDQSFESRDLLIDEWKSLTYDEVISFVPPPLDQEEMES

[2] = molecular target: T4, MAPK14 (wild-type, His-tagged, pET28a); assay: fluorescence thermal shift assay; type: binding; conditions: read-out: dTm
[3] = read-out: IC50 value (μM) ± SD / ABL1

T1 sequence (P00519 whole entry): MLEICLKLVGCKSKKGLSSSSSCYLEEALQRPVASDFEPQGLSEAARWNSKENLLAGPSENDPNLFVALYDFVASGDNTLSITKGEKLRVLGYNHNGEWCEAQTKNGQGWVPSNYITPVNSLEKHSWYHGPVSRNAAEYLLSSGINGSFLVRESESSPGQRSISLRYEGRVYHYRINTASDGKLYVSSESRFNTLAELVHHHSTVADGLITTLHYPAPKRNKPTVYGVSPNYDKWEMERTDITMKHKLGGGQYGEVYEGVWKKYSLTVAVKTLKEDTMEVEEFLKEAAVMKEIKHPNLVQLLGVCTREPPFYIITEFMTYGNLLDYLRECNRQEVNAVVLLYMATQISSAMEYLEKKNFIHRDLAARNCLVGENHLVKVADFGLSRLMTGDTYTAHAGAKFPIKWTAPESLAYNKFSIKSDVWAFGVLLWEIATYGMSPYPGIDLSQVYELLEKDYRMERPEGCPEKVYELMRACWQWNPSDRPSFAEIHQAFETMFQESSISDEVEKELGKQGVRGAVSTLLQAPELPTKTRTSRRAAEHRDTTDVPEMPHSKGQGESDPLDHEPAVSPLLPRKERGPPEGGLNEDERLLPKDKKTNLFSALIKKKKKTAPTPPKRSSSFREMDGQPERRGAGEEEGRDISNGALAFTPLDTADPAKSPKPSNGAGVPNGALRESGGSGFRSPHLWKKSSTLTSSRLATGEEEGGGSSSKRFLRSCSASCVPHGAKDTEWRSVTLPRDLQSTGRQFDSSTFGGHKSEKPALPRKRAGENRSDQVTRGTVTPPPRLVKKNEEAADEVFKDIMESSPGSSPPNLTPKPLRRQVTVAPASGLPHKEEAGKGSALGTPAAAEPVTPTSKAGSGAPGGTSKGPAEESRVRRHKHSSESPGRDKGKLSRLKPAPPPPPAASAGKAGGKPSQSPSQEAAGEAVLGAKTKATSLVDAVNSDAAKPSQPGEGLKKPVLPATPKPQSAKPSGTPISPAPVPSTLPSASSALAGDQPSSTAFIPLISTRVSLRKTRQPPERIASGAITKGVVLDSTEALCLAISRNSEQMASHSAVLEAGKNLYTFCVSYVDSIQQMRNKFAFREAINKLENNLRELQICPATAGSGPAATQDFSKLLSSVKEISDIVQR

| Compound | IC50 (ABL1; [3]) [µM] | IC50 (ERK2 (MAPK1)) [µM] | Kd [1] [µM] | ΔTm at 50 µM [2] [°C] | IC50 (MAPK14 (MAPK14/p38α)) [µM] | IC50 (ABL1; read-out: IC50) [µM] |
| --- | --- | --- | --- | --- | --- | --- |
| CCCSc1ccc2nc(NC(=O)OC)[nH]c2c1 [Albendazole] | 0.9 ± 0.6 | 3.4 ± 1.5 | – | – | > 50 | – |
| COC(=O)Nc1nc2ccc(Sc3ccccc3)cc2[nH]1 [Fenbendazole] | 0.19 ± 0.07 | > 50 | – | – | 10.7 ± 4.9 | – |
| COC(=O)Nc1nc2ccc(C(=O)c3cccs3)cc2[nH]1 [Nocodazole] | – | 26.9 ± 16.2 | – | – | 2.8 ± 5.6 | 0.078 ± 0.034 |

The next lines start with results.

| IC50 (ABL1; [3]) [µM] | IC50 (ERK2 (MAPK1)) [µM] | Kd [1] [µM] | ΔTm at 50 µM [2] [°C] | Compound | IC50 (MAPK14 (MAPK14/p38α)) [µM] | IC50 (ABL1; read-out: IC50) [µM] |
| --- | --- | --- | --- | --- | --- | --- |
| 0.11 ± 0.05 | 15.9 ± 8 | – | – | COC(=O)Nc1nc2cc(C(=O)c3ccc(F)cc3)ccc2[nH]1 [Flubendazole] | 5.5 ± 2.7 | – |
| 0.35 ± 0.12 | 24.7 ± 10.4 | 1.27 ± 0.02 | 3.7 | COC(=O)Nc1nc2ccc(C(=O)c3ccccc3)cc2[nH]1 [Mebendazole] | – | – |
